How the values were obtained:
[1] = test system: Staphylococcus aureus (S. aureus) 11540 strain; assay: Standard microdilution assay, MIC against S. aureus 11540; format: cell-based; conditions: S. aureus 11540 strain, standard microdilution assay, cutoff 16 micrograms/mL, read-out: MIC S. aureus
Summary of the method: (§1)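 Scoring as + or − used a 16 micrograms/mL cutoff on minimum inhibitory concentrations. These came from CLSI-standard microdilution, quality-controlled with reference strains tested in the same run.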

[2] = test system: Eschericia coli (E. coli) strain ATCC25922; assay: Standard microdilution assay, MIC against E. coli ATCC25922; format: cell-based; conditions: Escherichia coli; E. coli strain ATCC25922, standard microdilution assay; cutoff 16 micrograms/mL; read-out: MIC E. Coli
Summary of the method: as §1

Compound	MIC [1]	MIC [2]
C[C@H](N)CCCc1cc(-c2cc3cn(CC(=O)NCc4ccc(CNC(=N)N)cc4)c(=O)nc3[nH]2)cc(C(F)(F)F)c1 [Compound 582]	> 16 µg/mL	> 16 µg/mL
C[C@H](NCCCNC(=N)N)c1ccc(-n2cc3cc(-c4cc(CCC[C@@H](N)COC(=O)Cc5ccccc5)cc(Cl)c4F)[nH]c3nc2=O)cc1 [Compound 331]	< 16 µg/mL	< 16 µg/mL
C[C@H](N)CCCc1cc(Cl)c(F)c(-c2cc3cn(-c4ccc([C@H]5CC[C@H](CCNC(=N)N)N5)cc4)c(=O)nc3[nH]2)c1 [Compound 349]	< 16 µg/mL	< 16 µg/mL
C[C@H](N)CCCc1cc(OC(F)(F)F)c(F)c(-c2cc3cn(-c4ccc(C5=NCCCN5)cc4)c(=O)nc3[nH]2)c1 [Compound 565]	< 16 µg/mL	< 16 µg/mL
C[C@H](N)CCCc1cc(Cl)c(F)c(-c2cc3cn(-c4ccc([C@H](C)NCC[C@H](CNC(=O)CN)NC(=N)N)cc4)c(=O)nc3[nH]2)c1 [Compound 368]	< 16 µg/mL	< 16 µg/mL
C[C@H](N)CCCc1cc(OC(F)(F)F)c(F)c(-c2cc3cn(-c4ccc([C@@H]5CCC[C@@H](CCN)N5)cc4)c(=O)nc3[nH]2)c1 [Compound 429]	< 16 µg/mL	< 16 µg/mL
C[C@H](N)CCCc1cc(Cl)c(F)c(-c2cc3cn(-c4ccc([C@@H]5CCC[C@@H](CNCc6nccn6C)N5)cc4)c(=O)nc3[nH]2)c1 [Compound 551]	> 16 µg/mL	> 16 µg/mL
C[C@H](N)CCCc1cc(Cl)c(F)c(-c2cc3cn(-c4ccc(CN[C@H](CCN)CNc5ncc[nH]5)cc4)c(=O)nc3[nH]2)c1 [Compound 537]	< 16 µg/mL	< 16 µg/mL
C[C@H](N)CCCc1cc(OC(F)(F)F)c(F)c(-c2cc3cn(-c4ccc([C@H](C)NCCC(CC5CNC5)NC(=N)N)cc4)c(=O)nc3[nH]2)c1 (stereo partly shown) [Compound 481]	< 16 µg/mL	< 16 µg/mL
COC[C@@H](CCNC(=N)N)NCc1ccc(-n2cc3cc(-c4cc(CCC[C@H](C)N)cc(OC(F)(F)F)c4F)[nH]c3nc2=O)cc1 [Compound 351]	< 16 µg/mL	< 16 µg/mL
C=C[C@@H](C[C@@H](C)NCc1ccc(-n2cc3cc(-c4cc(CCC[C@H](C)N)cc(Cl)c4F)[nH]c3nc2=O)cc1)NC(=N)N [Compound 373]	< 16 µg/mL	< 16 µg/mL
COC[C@@H](CCNC(=N)N)NCc1ccc(-n2cc3cc(-c4cc(CCC[C@@H](N)CO)cc(Cl)c4F)[nH]c3nc2=O)cc1 [Compound 378]	< 16 µg/mL	< 16 µg/mL
COC[C@@H](CCN[C@@H](C)c1ccc(-n2cc3cc(-c4cc(CCC[C@H](C)N)cc(OC(F)(F)F)c4F)[nH]c3nc2=O)cc1)NC(=N)N [Compound 329]	< 16 µg/mL	< 16 µg/mL
C[C@H](N)CCCc1cc(Cl)c(F)c(-c2cc3cn(-c4ccc([C@@H]5CCC[C@@H](Cc6ncc(N)s6)N5)cc4)c(=O)nc3[nH]2)c1 [Compound 529]	> 16 µg/mL	> 16 µg/mL
